The record followed here is US7238689B2, “Isoxazoline derivative and herbicide comprising the same as active ingredient” (Ihara Chemical Industry Co., Ltd., priority 2001, dated 2007).

Data set [1] deals with Echinochloa oryzicola Vasing. Kind of data set: Herbicidal effect by paddy field soil treatment. In kind it is in vivo. More on the design: scale not given here. As to conditions: wettable powder, active ingredient 1000 g/ha, examined at the 21st day from the treatment. The method, boiled down: (§1)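 Seeds sown in puddled paddy soil under 3 cm of water; the next day wettable powders diluted in water were dropped onto the water surface at 1,000 g active ingredient/ha. Plants grown in a greenhouse, with herbicidal effect scored on day 21 against a rating standard.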

The test system of data set [2] is Monochoria vaginalis (Murm. f.) Presl var. plantaginea (Roxb.) Solms-Laub. The experiment in a line: Herbicidal effect by paddy field soil treatment. In kind it is in vivo. Further details: scale not given here. As to conditions: wettable powder, active ingredient 1000 g/ha, examined at the 21st day from the treatment. The method, boiled down: as §1
For data set [3], the system named is Echinochloa crus-galli (L.) Beauv. var. crusgalli. Kind of data set: Herbicidal effect by upland field soil treatment. Conditions: active ingredient 1000 g/ha, examined at 21st day from treatment. More on the design: scale not given here. The format is in vivo. The text has this:
(§2) An upland field soil was filled in a plastic pot of 80 cm^2. Seeds of Echinochloa crus-galli (L.) Beauv. var. crusgalli and Setaria viridis (L.) Beauv. were sowed, followed by covering with the same soil. […] Then, breeding was made in a greenhouse, and the herbicidal effect of each wettable powder was examined at the 21st day from the treatment in accordance with the standard shown in Table 21.

For data set [4], the system named is Setaria viridis (L.) Beauv. Kind of data set: Herbicidal effect by upland field soil treatment. More on the design: scale not given here. As to conditions: active ingredient 1000 g/ha, examined at 21st day from treatment. In kind it is in vivo.
Excerpt: as §2

Data set [5] has as its system Echinochloa crus-galli (L.) Beauv. var. crus-galli. The experiment in a line: Herbicidal effect by upland foliage treatment. In kind it is in vivo. More on the design: scale not given here. As to conditions: active ingredient 1000 g/ha, examined at 14th day from treatment. The method, boiled down: (§3)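 Two-week-old greenhouse plants in sand were sprayed over the whole foliage with water-diluted wettable powder at 1,000 liters per hectare, giving 1,000 g active ingredient per hectare. Herbicidal effect scored on a rating standard at day 14 after treatment.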

The test system of data set [6] is Setaria viridis (L.) Beauv. The experiment in a line: Herbicidal effect by upland foliage treatment. The format is in vivo. More on the design: scale not given here. As to conditions: active ingredient 1000 g/ha, examined at 14th day from treatment. The method in brief: as §3

In the case of `CC1(C)CC(SCc2c(C(F)(F)F)nn(-c3ccccc3)c2Cl)=NO1` [3-0001, 3-(5-chloro-1-phenyl-3-trifluoromethyl-1H-pyrazol-4-ylmethylthio)-5,5-dimethyl-2-isoxazoline], the melting point is 89 to 90 °C.

Turning to `CC1(C)CC(S(=O)(=O)Cc2c(C(F)(F)F)nn(-c3ccccc3)c2Cl)=NO1` [3-0002, 3-(5-chloro-1-phenyl-3-trifluoromethyl-1H-pyrazol-4-ylmethylsulfonyl)-5,5-dimethyl-2-isoxazoline], the melting point lay in the range of 132 to 133 °C. In addition, in data set [1], the “Herbicidal effect index, Echinochloa oryzicola Vasing” value came out at 5. In addition, the “Herbicidal effect index, Monochoria vaginalis (Burm. F.) Presl var. plantaginea (Roxb.) Solms-Laub.” value (“Herbicidal effect index … (Roxb.) Solms-Laub.” for short) in data set [2] came out at 5. The “herbicidal effect (index per standard of Table 21), Echinochloa curs-galli (L.) Beauv. Var. crus-galli” value in data set [3] was found to be 5. The “herbicidal effect (index per standard of Table 21), Setaria viridis (L.) Beauv.” value in data set [4] is reported as 5.

In turn, `CCS(=O)(=O)c1c(CS(=O)(=O)C2=NOC(C)(C)C2)c(C(F)(F)F)nn1-c1ccccc1` [3-0004, 5,5-dimethyl-3-(5-ethylsulfonyl-1-phenyl-3-trifluoromethyl-1H-pyrazol-4-ylmethylsulfonyl)-2-isoxazoline] registered a melting point of 158 to 160 °C. The “Herbicidal effect index, Echinochloa oryzicola Vasing” value in data set [1] worked out at 5. Besides, in data set [2], the “Herbicidal effect index … (Roxb.) Solms-Laub.” value came out at 5. Moreover, in data set [3], the “herbicidal effect (index per standard of Table 21), Echinochloa curs-galli (L.) Beauv. Var. crus-galli” value is reported as 5. For the same molecule, in data set [4], the “herbicidal effect (index per standard of Table 21), Setaria viridis (L.) Beauv.” value came to 5.

Turning to `CN(C)c1c(CS(=O)(=O)C2=NOC(C)(C)C2)c(C(F)(F)F)nn1-c1ccccc1` [3-0005, 5,5-dimethyl-3-(5-dimethylamino-1-phenyl-3-trifluoromethyl-1H-pyrazol-4-ylmethylsulfonyl)-2-isoxazoline], the melting point is 150 to 151 °C.

On to `CC1(C)CC(SCc2c(C(F)(F)F)nn(C(C)(C)C)c2Cl)=NO1` [3-0006, 3-(1-tert-butyl-5-chloro-3-trifluoromethyl-1H-pyrazol-4-ylmethylthio)-5,5-dimethyl-2-isoxazoline], for which the melting point lay in the range of 79 to 81 °C. Moreover, the “herbicidal effect (index per standard of Table 21), Echinochloa curs-galli (L.) Beauv. Var. crus-galli” value in data set [3] was determined as 4. Besides, the “herbicidal effect (index per standard of Table 21), Setaria viridis (L.) Beauv.” value in data set [4] was 4.

Molecule `CC1(C)CC(SCc2c(C(F)(F)F)n[nH]c2Cl)=NO1` [3-0007, 3-(5-chloro-3-trifluoromethyl-1H-pyrazol-4-ylmethylthio)-5,5-dimethyl-2-isoxazoline] gave a melting point of 120 to 122 °C.

`CC1(C)CC(SCc2c(Cl)nn(C(F)F)c2C(F)(F)F)=NO1` [3-0009, 3-(3-chloro-1-difluoromethyl-5-trifluoromethyl-1H-pyrazol-4-ylmethylthio)-5,5-dimethyl-2-isoxazoline] showed a melting point of 89 to 90 °C. Further, the “Herbicidal effect index, Echinochloa oryzicola Vasing” value in data set [1] turned out to be 5. Moreover, the “Herbicidal effect index … (Roxb.) Solms-Laub.” value in data set [2] turned out to be 5. Besides, the “herbicidal effect (index per standard of Table 21), Echinochloa curs-galli (L.) Beauv. Var. crus-galli” value in data set [3] is given as 5. For the same molecule, in data set [4], the “herbicidal effect (index per standard of Table 21), Setaria viridis (L.) Beauv.” value turned out to be 5.

For `CC1(C)CC(S(=O)(=O)Cc2c(C(F)(F)F)nn(C(F)F)c2Cl)=NO1` [3-0010, 3-(5-chloro-1-difluoromethyl-3-trifluoromethyl-1H-pyrazol-4-ylmethylsulfonyl)-5,5-dimethyl-2-isoxazoline], the melting point was in the range of 126 to 127 °C. In data set [5], the “herbicidal effect (index per standard of Table 21), Echinochloa curs-galli (L.) Beauv. Var. crus-galli” value amounted to 5. The “herbicidal effect (index per standard of Table 21), Setaria viridis (L.) Beauv.” value in data set [6] is recorded as 4.

The molecule `CC1(C)CC(S(=O)(=O)Cc2c(Cl)nn(C(F)F)c2C(F)(F)F)=NO1` [3-0011, 3-(3-chloro-1-difluoromethyl-5-trifluoromethyl-1H-pyrazol-4-ylmethylsulfonyl)-5,5-dimethyl-2-isoxazoline] yielded a melting point of 136 to 137 °C. The “herbicidal effect (index per standard of Table 21), Echinochloa curs-galli (L.) Beauv. Var. crus-galli” value in data set [5] was determined as 5. Moreover, in data set [6], the “herbicidal effect (index per standard of Table 21), Setaria viridis (L.) Beauv.” value is 4.

The molecule `CCOc1nn(C)c(C(F)(F)F)c1CS(=O)(=O)C1=NOC(C)(C)C1` [3-0012, 5,5-dimethyl-3-(3-ethoxy-1-methyl-5-trifluoromethyl-1H-pyrazol-4-ylmethylsulfonyl)-2-isoxazoline] came in with a melting point of 124 to 125 °C. For the same molecule, the “herbicidal effect (index per standard of Table 21), Echinochloa curs-galli (L.) Beauv. Var. crus-galli” value in data set [3] was found to be 5. Besides, the “herbicidal effect (index per standard of Table 21), Setaria viridis (L.) Beauv.” value in data set [4] amounted to 5.

In the case of `Cn1nc(C(F)(F)F)c(CS(=O)(=O)C2=NOC(C)(C)C2)c1Oc1ccccc1Cl` [3-0014, 3-(5-(2-chlorophenoxy)-1-methyl-3-trifluoromethyl-1H-pyrazol-4-ylmethylsulfonyl)-5,5-dimethyl-2-isoxazoline], the melting point was 67 to 70 °C. In data set [1], the “Herbicidal effect index, Echinochloa oryzicola Vasing” value is listed as 5. Besides, in data set [2], the “Herbicidal effect index … (Roxb.) Solms-Laub.” value is 5.

In turn, `Cn1nc(C(F)(F)F)c(CS(=O)(=O)C2=NOC(C)(C)C2)c1C#N` [3-0016, 3-(5-cyano-1-methyl-3-trifluoromethyl-1H-pyrazol-4-ylmethylsulfonyl)-5,5-dimethyl-2-isoxazoline] gave a melting point of 105 to 108 °C. The “Herbicidal effect index, Echinochloa oryzicola Vasing” value in data set [1] turned out to be 5. For the same molecule, the “Herbicidal effect index … (Roxb.) Solms-Laub.” value in data set [2] was determined as 5. Moreover, the “herbicidal effect (index per standard of Table 21), Echinochloa curs-galli (L.) Beauv. Var. crus-galli” value in data set [3] turned out to be 5. Also, the “herbicidal effect (index per standard of Table 21), Setaria viridis (L.) Beauv.” value in data set [4] is reported as 5.

Turning to `CCn1nc(Cl)c(CS(=O)(=O)C2=NOC(C)(C)C2)c1Cl` [3-0017, 3-(3,5-dichloro-1-ethyl-1H-pyrazol-4-ylmethylsulfonyl)-5,5-dimethyl-2-isoxazoline], the melting point fell in the range of 105 to 107 °C. Also, in data set [3], the “herbicidal effect (index per standard of Table 21), Echinochloa curs-galli (L.) Beauv. Var. crus-galli” value is given as 5. The “herbicidal effect (index per standard of Table 21), Setaria viridis (L.) Beauv.” value in data set [4] is given as 5.

As for `Cn1nc(C(F)F)c(CS(=O)(=O)C2=NOC(C)(C)C2)c1Cl` [3-0018, 3-(5-chloro-3-difluoromethyl-1-methyl-1H-pyrazol-4-ylmethylsulfonyl)-5,5-dimethyl-2-isoxazoline], the melting point lay in the range of 78 to 79 °C. In data set [3], the “herbicidal effect (index per standard of Table 21), Echinochloa curs-galli (L.) Beauv. Var. crus-galli” value was found to be 5. Moreover, in data set [4], the “herbicidal effect (index per standard of Table 21), Setaria viridis (L.) Beauv.” value is recorded as 5.

On to `CC1(C)CC(S(=O)(=O)Cc2c(C(F)(F)F)nn3c2OCCC3)=NO1` [3-0019, 3-(5,5-dimethyl-2-isoxazolin-3-ylsulfonylmethyl)-2-trifluoromethyl-6,7-dihydro-5H-pyrazolo[5,1-b][1,3]oxazine], for which the melting point fell in the range of 151 to 152 °C. Also, in data set [3], the “herbicidal effect (index per standard of Table 21), Echinochloa curs-galli (L.) Beauv. Var. crus-galli” value is 5. In addition, the “herbicidal effect (index per standard of Table 21), Setaria viridis (L.) Beauv.” value in data set [4] is recorded as 5.

Consider `CC1(C)CC(S(=O)(=O)Cc2cnccc2C(F)(F)F)=NO1` [7-0001, 5,5-dimethyl-3-(4-trifluoromethyl-pyridin-3-ylmethylsulfonyl)-2-isoxazoline], for which the melting point was in the range of 77 to 80 °C.

Take `COc1c(CS(=O)(=O)C2=NOC(C)(C)C2)c(C)cc[n+]1[O-]` [7-0009]: in data set [1], the “Herbicidal effect index, Echinochloa oryzicola Vasing” value is given as 5. In addition, the “Herbicidal effect index … (Roxb.) Solms-Laub.” value in data set [2] is on record as 5. Moreover, the “herbicidal effect (index per standard of Table 21), Echinochloa curs-galli (L.) Beauv. Var. crus-galli” value was found to be 5 in data set [3] and 4 in data set [5]. For the same molecule, the “herbicidal effect (index per standard of Table 21), Setaria viridis (L.) Beauv.” value in data set [4] is 5; in data set [6], 4.

Regarding `CC1(C)CC(S(=O)(=O)Cc2ccccn2)=NO1` [9-0001], the “Herbicidal effect index, Echinochloa oryzicola Vasing” value in data set [1] is given as 5. The “Herbicidal effect index … (Roxb.) Solms-Laub.” value in data set [2] turned out to be 5. For the same molecule, the “herbicidal effect (index per standard of Table 21), Echinochloa curs-galli (L.) Beauv. Var. crus-galli” value was determined as 5 in data set [3] and 4 in data set [5]. Also, the “herbicidal effect (index per standard of Table 21), Setaria viridis (L.) Beauv.” value in data set [4] came to 5; in data set [6], 4.

With `CC1(C)CC(S(=O)(=O)Cc2ncon2)=NO1` [9-0005], the “Herbicidal effect index, Echinochloa oryzicola Vasing” value in data set [1] turned out to be 5. In addition, the “Herbicidal effect index … (Roxb.) Solms-Laub.” value in data set [2] was determined as 5. Moreover, the “herbicidal effect (index per standard of Table 21), Echinochloa curs-galli (L.) Beauv. Var. crus-galli” value in data set [3] worked out at 5; in data set [5] it was 4. Moreover, the “herbicidal effect (index per standard of Table 21), Setaria viridis (L.) Beauv.” value in data set [4] and in data set [6] was 4 in each case.

`CC1(C)CC(S(=O)(=O)Cc2csc(Cl)n2)=NO1` [9-0008]: in data set [1], the “Herbicidal effect index, Echinochloa oryzicola Vasing” value is 5. Also, in data set [2], the “Herbicidal effect index … (Roxb.) Solms-Laub.” value is 5. For the same molecule, the “herbicidal effect (index per standard of Table 21), Echinochloa curs-galli (L.) Beauv. Var. crus-galli” value amounted to 5 in data set [3] and 4 in data set [5]. The “herbicidal effect (index per standard of Table 21), Setaria viridis (L.) Beauv.” value came out at 5 in data set [4] and 4 in data set [6].
